Values quoted from earlier work in patent publication US12471595B2, “Liquid pesticidal composition” (SUMITOMO CHEMICAL COMPANY, LIMITED, priority 2019, dated 2025).

Tests used:
[1] = pH7
[2] = 1-octanol/water

| SMILES | Water solubility at 25° C. [1] | log P at 25° C. [2] |
| --- | --- | --- |
| CON(C(=O)c1cn(C)nc1C(F)F)C(C)Cc1c(Cl)cc(Cl)cc1Cl (stereo not shown) [Pydiflumetofen] | 1.5 mass ppm | 3.8 |
| Cc1nnc(Cl)c(-c2c(F)cccc2F)c1-c1ccccc1 [Pyridachlometyl] | 0.6 mass ppm | 4.1 |
| CC(O)(Cn1cncn1)c1ccc(Oc2ccc(Cl)cc2)cc1C(F)(F)F (stereo not shown) [Mefentrifluconazole] | 0.81 mass ppm | 3.4 |
| COC(=O)N(OC)c1ccccc1COc1ccn(-c2ccc(Cl)cc2)n1 [Pyraclostrobin] | 1.9 mass ppm | 4.0 |
| CCOC(=O)COc1ncccc1Oc1cc(-n2c(=O)cc(C(F)(F)F)n(C)c2=O)c(F)cc1Cl [Compound A, Ethyl 2-[(3-{2-chloro-4-fluoro-5-[3-methyl-4-(trifluoromethyl)-2,6-dioxo-1,2,3,6-tetrahydropyrimidin-1(2H)-yl]phenoxy}pyridin-2-yl)oxy]acetate] | 2.0 mass ppm | 3.5 |
